Measured values as given in PubChem BioAssay (NCI).
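48-hour exposure; five concentrations; linearly interpolated endpoints. GI50 = concentration required for 50% inhibition of growth. TGI: total growth inhibition.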

Assays:
Test in all cases: inhibition of tumour cell growth, NCI panel, 48 h
SF-268 CNS = system: SF-268 CNS
HT29 colon = system: HT29 colon
KM12 colon = system: KM12 colon
LOX IMVI melanoma = system: LOX IMVI melanoma
MDA-N = system: MDA-N
UO-31 renal = system: UO-31 renal
A549 NSCLC = system: A549 NSCLC
IGROV1 ovarian = system: IGROV1 ovarian
ACHN renal = system: ACHN renal
OVCAR-3 ovarian = system: OVCAR-3 ovarian
786-0 renal = system: 786-0 renal
SK-OV-3 ovarian = system: SK-OV-3 ovarian

SMILES | TGI (SF-268 CNS) | TGI (HT29 colon) | TGI (KM12 colon) | TGI (LOX IMVI melanoma) | TGI (MDA-N) | TGI (UO-31 renal) | TGI (A549 NSCLC) | TGI (IGROV1 ovarian) | TGI (ACHN renal) | TGI (OVCAR-3 ovarian) | TGI (786-0 renal) | TGI (SK-OV-3 ovarian) | GI50 (SF-268 CNS) | GI50 (OVCAR-3 ovarian) | GI50 (SK-OV-3 ovarian)
CCCSc1ccc2[nH]c(N3C(=O)/C(=C/c4ccc(SC)cc4)N=C3c3ccccc3)cc2c1 | > 50 µM | > 50 µM | 32.7 µM | > 50 µM | 17.5 µM | > 50 µM | > 50 µM | > 50 µM | > 50 µM | > 50 µM | > 50 µM | > 50 µM |  |  | 
Cc1ccc(C)n2c1nc1ccccc12 | > 100 µM | > 100 µM | > 100 µM |  | > 100 µM | > 100 µM | > 100 µM | > 100 µM | > 100 µM | > 100 µM | > 100 µM | > 100 µM |  |  | 
COc1cccc(C2c3cc4c(cc3OC(NNS(=O)(=O)c3ccc(C)cc3)C2C)OCO4)c1OC (stereo not drawn) | > 100 µM | 13.9 µM | 13.5 µM | 5.15 µM | > 100 µM | 52.8 µM | 11.4 µM | 15.3 µM | 9.85 µM | 4.55 µM | 68.3 µM | 7.83 µM |  |  | 
Fc1ccc2c3c([nH]c2c1)CCN(Cc1ccccc1)C3 | 49.2 µM | 47.9 µM | 29 µM | 33.5 µM |  | 25.6 µM | 45.5 µM | 42.5 µM | 47.3 µM |  | 30 µM | 39.5 µM |  |  | 
C=C(C(=O)OC)[C@@H]1C[C@@H](OC(C)=O)C2=C[C@H](C[C@@]3(C)O[C@@H]3C3=CC(C)=C(O3)[C@H]1OC(C)=O)OC2=O | > 100 µM | 76.9 µM | 43.7 µM | 41.8 µM | 50.8 µM | 36.3 µM | > 100 µM | 57.1 µM | 49.4 µM |  | 49.1 µM | > 100 µM |  |  | 
CCC(C)[C@@H](Nc1c(O)c2c(c(O)c1Cl)C(=O)C=CC2=O)C(=O)OC (stereo partly drawn) | > 10 µM | > 10 µM | > 10 µM | > 10 µM | > 10 µM |  | > 10 µM | > 10 µM | > 10 µM | 9.1 µM | > 10 µM | > 10 µM |  |  | 
COc1cc2c(c(OC)c1OC)-c1ccc(SC)c(=O)cc1[C@@H](O)CC2 |  | 0.0703 µM |  | > 100 µM | 0.000318 µM | > 100 µM | > 100 µM |  | > 100 µM |  | > 100 µM |  | 0.0153 µM | 0.000322 µM | > 100 µM
Cc1cccc2sc(-c3ccc(O)cc3)nc12 | 31.9 µM | 28.7 µM | 31.6 µM | 49.6 µM | 19.4 µM | 26.4 µM | 34.8 µM | 29.2 µM | 33 µM | 29.8 µM |  | 35.4 µM |  |  | 
CC(C)(Cl)C(Br)CCC(Br)(CCl)C(Cl)CBr (stereo not drawn) |  | > 10 µM | > 10 µM | > 10 µM | > 10 µM | > 10 µM |  | > 10 µM | > 10 µM | > 10 µM | > 10 µM | > 10 µM |  |  | 
CC(C)C1NC(=O)CC(c2ccccc2)N(N=O)C1c1ccccc1 (stereo not drawn) | > 100 µM | > 100 µM | > 100 µM | > 100 µM |  | > 100 µM | > 100 µM | > 100 µM |  | > 100 µM |  | > 100 µM |  |  | 
N[C@@H]1CCN(c2c(F)cc3c(=O)c(C(=O)O)cn4c3c2Oc2cc3c(ccc5ccccc53)cc2-4)C1 |  | > 100 µM | > 100 µM | > 63.7 µM | > 100 µM | > 100 µM | > 100 µM | > 100 µM | > 41.7 µM | 34.5 µM | > 100 µM |  |  |  | 
O=C1NN(Cc2ccccc2)C(=O)N2CCC[C@@H]12 | > 100 µM | > 100 µM | > 100 µM | > 100 µM | > 100 µM |  | > 100 µM | > 100 µM | > 100 µM | > 100 µM | > 100 µM | > 100 µM |  |  | 
COc1cc(C2(c3ncc[nH]3)SSSCC2O)ccc1O (stereo not drawn) | 23.8 µM | > 100 µM | > 100 µM | > 54.5 µM |  | > 100 µM | > 100 µM | > 100 µM |  | > 71.7 µM |  | > 100 µM |  |  | 
CCN(CC)CCN(C)c1ccc(CO)c2c1C(=O)c1ccccc1S2=O (stereo not drawn) | 35.9 µM | 2.95 µM | 4.55 µM | 3.66 µM |  | 42.1 µM | 25.6 µM | 32.8 µM | 23.8 µM | 4.11 µM | 3.22 µM | 32.4 µM |  |  | 
S=c1ncc2c([nH]1)C1c3ccccc3C2c2ccccc21 | > 100 µM |  | > 100 µM | > 100 µM |  | > 100 µM | > 100 µM | > 100 µM | > 100 µM | > 100 µM | > 100 µM |  |  |  | 
CC(=O)NC(NCCN)(c1ccccc1)c1ccccc1 | > 100 µM | > 100 µM | > 100 µM | > 100 µM |  | > 100 µM | > 100 µM |  | > 100 µM |  | > 100 µM | > 100 µM |  |  | 
CCOC(=O)c1c(NC(=S)Nc2ccc(Cl)cc2)sc2c1CCN(C)C2 | > 100 µM | > 100 µM | > 100 µM |  | > 100 µM | > 100 µM | > 100 µM | > 100 µM | > 100 µM | > 100 µM | > 100 µM |  |  |  | 
COc1cc(OC)cc(-c2cc(=O)c3cc4c(cc3[nH]2)OCO4)c1 | 38.6 µM | > 100 µM |  | > 51.1 µM |  | > 88.9 µM | 45.1 µM | 18.2 µM | > 35.5 µM | 5.82 µM | 33 µM | 4.49 µM |  |  | 
COC(=O)/C=C1/OC(c2ccccc2)=C(C)C1=O | 35.5 µM | 4.79 µM | 27.1 µM | 2.72 µM | 5.71 µM | 26.7 µM |  | 28.4 µM | 25.7 µM | 41.9 µM | 22.3 µM | 22.6 µM |  |  | 
C/C=C1\CN2CCc3c([nH]c4ccccc34)C2CC1CCO (stereo not drawn) | > 100 µM | > 100 µM | > 100 µM | > 100 µM |  | > 100 µM | > 100 µM | > 100 µM | > 100 µM | > 100 µM | > 100 µM | > 100 µM |  |  | 
